Source: patent US20260335279A1, “METHODS OF TREATING ISCHEMIA-REPERFUSION INJURIES” (University of Cincinnati, priority 2022, published 2026)

What was measured:
[1] = system: NOX4; test: NOX4 mRNA in myocardium after I/R (real-time PCR); type: in vivo, mouse (C57BL/6); conditions: ML264 treatment; 30 min ischemia, 2 h reperfusion
Procedure: (§1) The myocardial ischemia/reperfusion surgical protocol was applied as follows. Mice were anesthetized with 2% isoflurane inhalation until anesthesia was achieved. The animals' body temperature was maintained at 37 °C throughout the surgical procedure using a heating pad. A tracheal tube was placed via tracheal intubation and the respiration rate was set at 150 strokes/min with a tidal volume of 200 μL, using Minivent ventilator for mice (Model 845, Harvard Apparatus). A 1.2 cm incision was made over the left chest. After retraction of the pectoral major and minor muscles, the fourth intercostal space was exposed. […] The mouse was then monitored during the recovery period, which was generally completed within 3 to 5 minutes. […]
(§2) Total RNA was purified from heart tissue using the TRIzol reagent according to the instructions of the manufacturer (ThermoFischer Scientific, Cat. No.: 15596018). cDNA synthesis was performed using the Applied Biosystems High Capacity cDNA Reverse Transcription Kit (ThermoFischer Scientific, Cat. No.: 4368814) from 500 ng RNA, which had been treated with DNAase I (ThermoFischer Scientific, Cat. No.: 18068015). Quantitative real-time PCR was performed with the SYBR Select Master Mix (ThermoFischer Scientific, Cat. No.: 4472903) using the manufacturer's recommendations. […]

[2] = system: Ugdh; test: Ugdh levels after I/R; type: in vivo, mouse; conditions: among the three groups, ML-264 treatment
Procedure: as §1, §2

[3] = system: myocardial ischemia-reperfusion injury in mice; test: 2D echocardiography (cardiac function) in murine myocardial ischemia-reperfusion injury; type: in vivo, mouse (C57BL/6); conditions: 30 min ischemia
Procedure: Cardiac function was assessed by transthoracic echocardiography using the VisualSonics Vevo F2 system (VisualSonics, Toronto, ON). Sedation was induced by 3% isoflurane and maintained at 0.5% isoflurane during the procedure, during which the animals were placed on a heated table under a lamp at approximately 37 °C. Parasternal long axis (PSLAX) and short axis (SAX) images were recorded and then analyzed on a separate workstation with VevoLab software (Vevo 2100, v1.6, Visualsonic, Toronto, Canada). From the M-mode images, left ventricular cavity size for systole and diastole (LV dia;s, LV dia;d, LV Vol;s and LV Vol;d) were measured. Heart rate (HR), stroke volume (SV), and the echocardiographic calculation for fractional shortening (FS), ejection fraction (EF) and cardiac output (CO) were obtained using the Vevo software. Treatment and control groups were analyzed on the same day by the same technician in order to minimize variation. For VevoStrain analysis, B-mode images of 300 frames at greater than 200 frames/second were used.
The myocardial ischemia/reperfusion surgical protocol was applied as follows. Mice were anesthetized with 2% isoflurane inhalation until anesthesia was achieved. […] The mouse was then monitored during the recovery period, which was generally completed within 3 to 5 minutes. […]

[4] = system: Glut1; test: Glut1 mRNA after I/R; type: in vivo, mouse; conditions: ML-264 treatment; vs I/R group treated with vehicle
Procedure: as §1, §2

[5] = system: IL-1β; test: IL-1β mRNA in ischemic myocardium; type: in vivo, mouse (C57BL/6); conditions: evaluated at 2 h and 24 h of reperfusion, vs vehicle
Procedure: as §1, §2

[6] = system: KLF5; test: KLF5 suppression, mRNA (quantitative real-time PCR) in cardiac tissue, I/R mice; type: in vivo, mouse (C57BL/6)
Procedure: as §1, §2

[7] = system: reactive oxygen species in myocardium; test: DHE staining of myocardium (superoxide detection, oxidative stress) after I/R; type: in vivo, mouse (C57BL/6); conditions: 30 min ischemia, 2 h reperfusion; ML264 5 min prior to reopening of coronary artery; vs I/R vehicle
Procedure: The myocardial ischemia/reperfusion surgical protocol was applied as follows. Mice were anesthetized with 2% isoflurane inhalation until anesthesia was achieved. The animals' body temperature was maintained at 37 °C throughout the surgical procedure using a heating pad. A tracheal tube was placed via tracheal intubation and the respiration rate was set at 150 strokes/min with a tidal volume of 200 μL, using Minivent ventilator for mice (Model 845, Harvard Apparatus). A 1.2 cm incision was made over the left chest. After retraction of the pectoral major and minor muscles, the fourth intercostal space was exposed. […] The left anterior descending coronary artery (LAD) was then located, sutured, and ligated at a site 3-4 mm distal to the origin of the artery under the left atrium using a 6-0 silk suture. The heart was allowed to stabilize for 15 min and right after, ischemia was induced by tightening the suture against a small piece of polyethylene tube. At the end of the 30-minute ischemia period, the ligature was released for the induction of reperfusion, and then the manual evacuation of air and closure of muscle and skin were performed. The mouse was then monitored during the recovery period, which was generally completed within 3 to 5 minutes. […]
Live myocardium was isolated from mice at the time of euthanasia and stained with 20 μM dihydroethidium (DHE) for 30 min at room temperature. […] Individual nuclei were measured within each visual field using ImageJ software, and visual fields were averaged to measure mean fluorescence intensity for each mouse.
In order to unravel the mechanisms of KLF5-mediated cardiotoxicity, oxidative stress levels were evaluated at early reperfusion. […] Given the fact that inflammation and diapedesis of immune cells are important hallmarks of the post-ischemia-reperfusion response, the mRNA levels of IL-1α, IL-1β, IL-6, IL-10, and TNFα in the ischemic myocardium upon ML264 treatment were evaluated at 2 hours of reperfusion (FIGS. 51-5M) and 24 hours of reperfusion (FIGS. 5N-5Q). […]

With CN(C(=O)CNC(=O)/C=C/c1cccc(Cl)c1)C1CCS(=O)(=O)CC1 [ML264] the “NOX4 mRNA levels” value [1] was “suppressed”, the Ugdh levels [2] was “no effect” and the “ejection fraction (4 weeks)” value ([3]; 4 weeks reperfusion, two doses of ML264 at early reperfusion, vs IR vehicle) was “significant preservation”. The ejection fraction ([3]; 24 h reperfusion, 25 mg/kg/12 h intraperitoneal, first dose 5 min before reopening of coronary artery, vs vehicle) was “significant preservation”, the “Glut1 levels (mRNA)” value [4] was “trend towards reduced” and the “IL-1β mRNA levels” value [5] was “Significant suppression”. The “KLF5 mRNA levels (4 weeks)” value ([6]; 4 weeks post-ischemia-reperfusion, among the four groups) was “unchanged”, the “KLF5 mRNA expression level in cardiac tissue” value ([6]; 30 minutes of ischemia, ML264 25 mg/kg/12 h intraperitoneal) was “suppression was confirmed” and the “reactive oxygen species formation (DHE staining)” value [7] was “significant reduction”.
